Numbers after ± are expanded uncertainties.
Columns and labels:
[1] = xn = mol fraction of the nth substance listed; conditions: 101 kPa, Liquid, x1 = 1
[2] = 101 kPa, Liquid

`c1ccccc1` [benzene] + O=CN1CCOCC1 showed a mass density ([1]; 298.15 K) of 873.57 ± 1.3 kg/m3, a viscosity ([1]; 298.15 K) of 0.601 ± 0.032 mPa·s and a mass density ([1]; 303.15 K) of 868.24 ± 1.3 kg/m3. For the same molecule, the viscosity ([1]; 303.15 K) was 0.562 ± 0.031 mPa·s, the mass density ([1]; 313.15 K) was 857.34 ± 1.4 kg/m3 and the viscosity ([1]; 313.15 K) was 0.493 ± 0.028 mPa·s. For the same molecule, the mass density ([1]; 323.15 K) was 846.59 ± 1.5 kg/m3, the viscosity ([1]; 323.15 K) was 0.436 ± 0.025 mPa·s and the mass density ([1]; 333.15 K) was 835.75 ± 1.5 kg/m3. For the same molecule, the viscosity ([1]; 333.15 K) was 0.389 ± 0.023 mPa·s, the mass density ([1]; 343.15 K) was 824.98 ± 1.6 kg/m3 and the viscosity ([1]; 343.15 K) was 0.354 ± 0.022 mPa·s.
For `c1ccccc1` [benzene], the mass density ([2]; 298.15 K) was 873.57 ± 1.3 kg/m3, the viscosity ([2]; 298.15 K) was 0.601 ± 0.032 mPa·s and the mass density ([2]; 303.15 K) was 868.24 ± 1.3 kg/m3. For the same molecule, the viscosity ([2]; 303.15 K) was 0.562 ± 0.031 mPa·s, the mass density ([2]; 313.15 K) was 857.34 ± 1.4 kg/m3 and the viscosity ([2]; 313.15 K) was 0.493 ± 0.028 mPa·s. For the same molecule, the mass density ([2]; 323.15 K) was 846.59 ± 1.5 kg/m3, the viscosity ([2]; 323.15 K) was 0.436 ± 0.025 mPa·s and the mass density ([2]; 333.15 K) was 835.75 ± 1.5 kg/m3. It also gave a viscosity ([2]; 333.15 K) of 0.389 ± 0.023 mPa·s, a mass density ([2]; 343.15 K) of 824.98 ± 1.6 kg/m3 and a viscosity ([2]; 343.15 K) of 0.354 ± 0.022 mPa·s.
`O=CN1CCOCC1` [N-formylmorpholine] gave a mass density ([2]; 298.15 K) of 1146.06 ± 1.5 kg/m3, a viscosity ([2]; 298.15 K) of 7.955 ± 0.31 mPa·s and a mass density ([2]; 303.15 K) of 1141.7 ± 1.4 kg/m3. For the same molecule, the viscosity ([2]; 303.15 K) was 6.877 ± 0.28 mPa·s, the mass density ([2]; 313.15 K) was 1132.96 ± 1.4 kg/m3 and the viscosity ([2]; 313.15 K) was 5.214 ± 0.22 mPa·s. For the same molecule, the mass density ([2]; 323.15 K) was 1124.33 ± 1.3 kg/m3, the viscosity ([2]; 323.15 K) was 4.08 ± 0.18 mPa·s and the mass density ([2]; 333.15 K) was 1115.63 ± 1.3 kg/m3. The viscosity ([2]; 333.15 K) was 3.284 ± 0.15 mPa·s, the mass density ([2]; 343.15 K) was 1107.96 ± 1.2 kg/m3 and the viscosity ([2]; 343.15 K) was 2.707 ± 0.12 mPa·s. The mass density ([2]; 353.15 K) was 1098.76 ± 1.2 kg/m3 and the viscosity ([2]; 353.15 K) was 2.274 ± 0.1 mPa·s.

From the NIST ThermoML archive (doi:10.1021/je060475r)
